What is called EC50 is the concentration at which the effect is half-maximal. Broadly, the Ki is a dissociation constant, usually derived from enzyme kinetics or from competition with a known ligand. Read a low Ki as higher affinity. Broadly, the microsomal CLint is the rate of metabolic loss divided by the concentration. By bioavailability is commonly meant the share of a dose that reaches the circulation, judged against a reference dose that is usually intravenous. Lower therefore signals little systemic uptake. A word on the AUC: it is concentration integrated over time. A word on the clearance: it is a measure of how efficiently the substance is removed, as volume per time. Read a low clearance as inefficient removal.

Bounds are passed on as bounds.

The values that follow come from ChEMBL document CHEMBL1773026, “Inhalation by design: dual pharmacology β-2 agonists/M3 antagonists for the treatment of COPD” (Bioorg Med Chem Lett, 2011).

Series [1] has as its target T1, Beta-2 adrenergic receptor (Homo sapiens, UniProt P07550). In words: Agonist activity at human beta2 adrenergic receptor expressed in CHO cells assessed as stimulation of intracellular cAMP production after 30 mins of washing by wash-off assay. Type of series: functional, cell-based.
Target sequence in this assay (P07550 whole entry): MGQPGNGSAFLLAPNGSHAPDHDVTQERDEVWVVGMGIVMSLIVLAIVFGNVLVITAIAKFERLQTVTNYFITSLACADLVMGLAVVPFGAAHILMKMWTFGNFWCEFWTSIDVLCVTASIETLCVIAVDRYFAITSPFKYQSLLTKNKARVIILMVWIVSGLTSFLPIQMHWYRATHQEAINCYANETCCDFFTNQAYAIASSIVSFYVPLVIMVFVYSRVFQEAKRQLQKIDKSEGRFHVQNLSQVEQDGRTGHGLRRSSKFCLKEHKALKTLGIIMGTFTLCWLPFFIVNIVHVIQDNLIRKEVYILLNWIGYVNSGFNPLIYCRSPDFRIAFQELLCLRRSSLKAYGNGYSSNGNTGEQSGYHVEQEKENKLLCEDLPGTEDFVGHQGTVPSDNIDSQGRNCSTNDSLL
Series [2] addresses T1, Beta-2 adrenergic receptor. The series can be described thus: Ratio of EC50 for human beta2 adrenergic receptor by unwashed assay to EC50 for human beta2 adrenergic receptor expressed in CHO cells by wash-off assay. Type of series: cell-based.
Target sequence in this assay (P07550 whole entry, looked up): as the sequence (P07550 whole entry) above
Series [3] has as its target T2, Muscarinic acetylcholine receptor M3 (Homo sapiens, UniProt P20309). In words: Displacement of [3H]N-methyl Scopolamine from human muscarinic M3 receptor expressed in CHO cells by scintillation proximity assay. Type of series: cell-based. (Displacement assays read how much labelled ligand stays bound in the presence of the test substance.)
Target sequence in this assay (P20309 whole entry): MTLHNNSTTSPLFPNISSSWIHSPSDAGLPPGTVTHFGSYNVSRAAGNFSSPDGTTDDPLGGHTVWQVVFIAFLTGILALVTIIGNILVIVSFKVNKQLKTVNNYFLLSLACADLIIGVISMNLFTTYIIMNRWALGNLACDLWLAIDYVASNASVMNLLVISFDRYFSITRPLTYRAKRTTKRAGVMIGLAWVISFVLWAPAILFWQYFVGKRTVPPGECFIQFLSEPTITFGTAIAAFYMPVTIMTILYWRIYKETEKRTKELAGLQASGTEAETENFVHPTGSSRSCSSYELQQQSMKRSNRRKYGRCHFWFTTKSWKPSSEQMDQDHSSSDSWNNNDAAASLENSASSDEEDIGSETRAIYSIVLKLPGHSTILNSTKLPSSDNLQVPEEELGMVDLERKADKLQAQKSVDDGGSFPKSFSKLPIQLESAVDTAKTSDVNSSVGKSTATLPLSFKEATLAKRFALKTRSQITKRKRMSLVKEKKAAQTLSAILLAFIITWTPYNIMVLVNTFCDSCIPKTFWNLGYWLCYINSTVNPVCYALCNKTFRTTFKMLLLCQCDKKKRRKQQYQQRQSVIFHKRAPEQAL
Series [4] can be described thus: Clearance in human liver microsomes. Type of series: ADME, Microsome.
In series [5] the target is T2, Muscarinic acetylcholine receptor M3. The series can be described thus: Displacement of [3H]NMS from human muscarinic M3 receptor expressed in CHO cells assessed as time required to reach 50% of total [3H]NMS binding by dilution-offset methodology. Type of series: cell-based.
Target sequence in this assay (P20309 whole entry, looked up): as the sequence (P20309 whole entry) above
Series [6] in a line: Bronchodilatory activity against electrically-stimulated contraction in guinea pig trachea assessed as concentration required for 50% bronchorelaxation activity. Type of series: functional, tissue-based, Cavia porcellus.
Series [7] can be described thus: Bronchodilatory activity against electrically-stimulated contraction in guinea pig trachea assessed as time taken for inducing 50% maximum relaxant effect. Type of series: functional, Cavia porcellus.
The target in series [8] is Muscarinic acetylcholine receptor M3 (Cavia porcellus, UniProt Q8VH26). In words: […] activity at muscarinic M3 receptor in guinea pig trachea assessed as bronchorelaxation activity in presence of propranolol. Type of series: functional, tissue-based.
Muscarinic acetylcholine receptor M3 (Cavia porcellus, UniProt Q8VH26), sequence (Q8VH26 whole entry): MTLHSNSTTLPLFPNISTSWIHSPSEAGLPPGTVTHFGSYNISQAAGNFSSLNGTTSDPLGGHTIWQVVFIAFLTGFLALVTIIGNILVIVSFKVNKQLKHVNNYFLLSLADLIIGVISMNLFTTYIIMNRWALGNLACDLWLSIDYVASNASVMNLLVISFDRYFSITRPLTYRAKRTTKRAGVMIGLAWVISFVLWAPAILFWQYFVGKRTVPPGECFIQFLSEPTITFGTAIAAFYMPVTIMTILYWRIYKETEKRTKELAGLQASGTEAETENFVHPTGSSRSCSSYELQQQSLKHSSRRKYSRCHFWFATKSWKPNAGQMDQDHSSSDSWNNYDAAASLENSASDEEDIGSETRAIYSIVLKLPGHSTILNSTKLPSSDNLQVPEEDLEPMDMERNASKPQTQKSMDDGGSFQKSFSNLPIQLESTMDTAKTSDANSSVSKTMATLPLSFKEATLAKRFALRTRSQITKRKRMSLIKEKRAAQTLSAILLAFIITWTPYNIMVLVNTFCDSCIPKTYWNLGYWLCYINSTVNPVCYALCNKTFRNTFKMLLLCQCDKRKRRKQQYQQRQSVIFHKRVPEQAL
In series [9] the target is Muscarinic acetylcholine receptor M3 (Cavia porcellus) (UniProt Q8VH26). The series can be described thus: […] activity at muscarinic M3 receptor in guinea pig trachea assessed as time taken for inducing bronchorelaxation activity in presence of propranolol. Type of series: functional, tissue-based.
Muscarinic acetylcholine receptor M3 (Cavia porcellus), sequence (Q8VH26 1-587): as the sequence (Q8VH26 whole entry) above
In series [10] the target is Beta-2 adrenergic receptor (Cavia porcellus, UniProt Q8K4Z4). The series can be described thus: Agonist activity at adrenergic beta2 receptor in guinea pig trachea assessed as bronchorelaxation activity against histamine-induced contraction. Type of series: functional.
Beta-2 adrenergic receptor (Cavia porcellus, UniProt Q8K4Z4), sequence (Q8K4Z4 whole entry): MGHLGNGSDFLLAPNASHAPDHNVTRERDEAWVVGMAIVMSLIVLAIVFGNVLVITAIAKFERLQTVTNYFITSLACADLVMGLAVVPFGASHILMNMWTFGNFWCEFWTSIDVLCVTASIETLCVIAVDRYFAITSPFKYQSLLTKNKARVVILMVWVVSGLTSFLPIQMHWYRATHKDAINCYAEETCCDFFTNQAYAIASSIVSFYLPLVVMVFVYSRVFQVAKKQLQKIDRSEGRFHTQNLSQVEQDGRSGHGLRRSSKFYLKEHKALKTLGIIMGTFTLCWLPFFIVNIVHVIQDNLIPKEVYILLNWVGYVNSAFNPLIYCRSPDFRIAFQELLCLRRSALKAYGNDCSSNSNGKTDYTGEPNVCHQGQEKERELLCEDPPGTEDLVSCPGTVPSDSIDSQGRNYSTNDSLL
For series [11], the species on record is Canis familiaris. In words: Inhibition of methacholine-induced bronchoconstriction in dog. Type of series: functional, Canis lupus familiaris.
Series [12] in a line: Oral bioavailability in human. Type of series: ADME, organism-based. Particulars: in vivo.
A short description of series [13]: AUC in rat at 2 mg/kg, iv. Type of series: ADME, organism-based. Also on record: dose 2 mg/kg, route intravenous. Particulars: plasma.
Series [14] is described as follows: Clearance in rat at 2 mg/kg, iv. Type of series: ADME, organism-based. Further details: dose 2 mg/kg, route intravenous. Particulars: in vivo.
For series [15], the species on record is Canis familiaris. In words: Inhibition of methacholine-induced bronchoconstriction in dog assessed as duration action at 30 ug, it. Type of series: functional, Canis lupus familiaris.

For `CC(C)N(CC[C@H](c1ccccc1)c1cc(CCCNC(=O)Cc2cccc(C[C@@H](C)NC[C@H](O)c3cc(O)cc(O)c3)c2)ccc1O)C(C)C`, the EC50 in [1] turned out to be 15 nM. Besides, in [2], the Ratio EC50 amounted to 0.7. Further, the affinity in [3] corresponds to a Ki of 0.397 nM. Moreover, the microsomal CLint in [4] was more than 440 µL/min/mg. The TIME in series [5] was 2.25 h.

In series [4], `Cc1ccc(O)c([C@H](CCN(C(C)C)C(C)C)c2ccccc2)c1` [TOLTERODINE] showed a microsomal CLint of 163 µL/min/mg. Further, the TIME in series [5] was less than 0.25 h.

As to `CC(C)N(CC[C@H](c1ccccc1)c1cc(CCCNC(=O)Cc2cccc(CC(C)(C)NC[C@H](O)c3ccc(O)c(NS(C)(=O)=O)c3)c2)ccc1O)C(C)C`, the EC50 in series [1] was 8.1 nM; in series [6], 1.3 nM; in series [8], 5.3 nM; in series [10], 2.1 nM. Besides, in series [2], the Ratio EC50 amounted to 1.1. The molecule also had a Ki in series [3] of 0.276 nM. Moreover, the microsomal CLint in series [4] is 109 µL/min/mg. Also, in [7], the Time was more than 6.5 h. Moreover, the TIME in series [9] turned out to be 4.8 h; in series [5], 2.77 h.

For the molecule `CC(C)N(CC[C@H](c1ccccc1)c1cc(CCCNC(=O)Cc2cccc(CC(C)(C)NC[C@H](O)c3ccc(O)c(CO)c3)c2)ccc1O)C(C)C`, in series [1], the EC50 came to 17 nM. Besides, the Ratio EC50 in series [2] was 2.8. In series [3], the Ki came to 0.091 nM. For the same molecule, in [4], the microsomal CLint was 263 µL/min/mg. The TIME in series [5] was 5.92 h.

For `CC(C)N(CC[C@H](c1ccccc1)c1cc(CCCNC(=O)CCCCCCCCCCNC[C@H](O)c2ccc(O)c(NS(C)(=O)=O)c2)ccc1O)C(C)C`, the EC50 in [1] was determined as 116 nM. In addition, the Ratio EC50 in series [2] was determined as 7.3. The Ki in [3] was determined as 1.45 nM. This molecule also returned a microsomal CLint in [4] of 87 µL/min/mg.

Turning to `CC(C)N(CC[C@H](c1ccccc1)c1cc(CCCCOc2ccc(CCNC[C@H](O)c3ccc(O)c4[nH]c(=O)ccc34)cc2)ccc1O)C(C)C`, the EC50 in series [1] is 2.4 nM; in series [6], 4.1 nM; in series [8], 4 nM; in series [10] it was 4 nM. In series [2], the Ratio EC50 stood at 1.1. Moreover, in series [3], the inhibition constant (Ki) came out at 0.305 nM. The microsomal CLint in series [4] is 74 µL/min/mg. Besides, the Time was more than 7.7 h in series [7] and more than 16 h in series [15]. Moreover, the TIME in series [9] was more than 10 h; in [5], more than 20 h. The molecule also returned an ED50 in series [11] of 30 µg. Moreover, the bioavailability in [12] was less than 5%. Further, in series [13], the AUC was 2670 ng·h/mL. This molecule also came in with a clearance in series [14] of 12.6 mL/min/kg.

Consider `CC(C)N(CC[C@H](c1ccccc1)c1cc(CCCCOc2ccc(CCNC[C@H](O)c3ccc(O)c(CO)c3)cc2)ccc1O)C(C)C`, for which the EC50 in [1] turned out to be 129 nM. In addition, the Ratio EC50 in series [2] was determined as 2.6. In [3], this molecule showed a Ki of 0.765 nM. Further, the microsomal CLint in [4] turned out to be 54 µL/min/mg. Further, in series [5], the TIME was more than 20 h.

For the molecule `CC(C)N(CC[C@H](c1ccccc1)c1cc(CCCCOCCCCCCNC[C@H](O)c2ccc(O)c(NS(C)(=O)=O)c2)ccc1O)C(C)C`, in series [1], the EC50 was 5.7 nM. The Ratio EC50 in series [2] is 0.7. Moreover, affinity in [3] was put at a Ki of 0.99 nM. This molecule returned a microsomal CLint in [4] of 57 µL/min/mg. In addition, the TIME in series [5] is more than 20 h.

On to `CC(C)N(CC[C@H](c1ccccc1)c1cc(CCNC[C@H](O)c2ccc(O)c(NS(C)(=O)=O)c2)ccc1O)C(C)C`, for which the EC50 in series [1] is 10 nM. Also, the Ratio EC50 in series [2] came out at 19. Moreover, the Ki in series [3] was 6.1 nM. Also, in series [5], the TIME was less than 0.25 h.

For the molecule `CC(C)N(CC[C@H](c1ccccc1)c1cc(CCCCOc2ccc(CCNC[C@H](O)c3ccc(O)c(O)c3)cc2)ccc1O)C(C)C`, the EC50 in [1] stood at 173 nM. In addition, in [3], the affinity, expressed as Ki, was 4.7 nM.

Turning to `C[C@H](Cc1cccc(CC(=O)NCc2ccc(Cl)c(Cl)c2)c1)NC[C@H](O)c1ccc(O)c(CO)c1`, the EC50 in [1] is 1.1 nM. The Ratio EC50 in [2] worked out at 2.9. The microsomal CLint in [4] was more than 440 µL/min/mg.

Take `CC(C)N(CC[C@H](c1ccccc1)c1cc(CCCCOc2ccc(CCNC[C@H](O)c3ccc(O)c(NS(C)(=O)=O)c3)cc2)ccc1O)C(C)C`: the EC50 in series [1] came to 13 nM. Moreover, the Ratio EC50 in series [2] was 1.9. The Ki in series [3] came to 0.634 nM. Also, in series [4], the microsomal CLint was determined as 67 µL/min/mg. Also, the TIME in series [5] is more than 20 h.
